Patent US20100284984A1, “ADENOSINE AND ITS MIMETICS. MODULATORS, TRANSPORT INHIBITORS, AND RECEPTOR AGONISTS AS A THERAPEUTIC TOOL TO REPLACE OR IMPROVE THE EFFICACY OF DEEP BRAIN STIMULATION” (University of Rochester, priority 2007, published 2010)
“Also recorded” adds a separate entry of the source.

Legend:
Ecto-ATPase [1] = conditions: Crack et al.; cited from earlier work
thalamic neurons = experiment: HFS-induced depression of eEPSPs in thalamic slices, pharmacology; format: cell-based, mouse; conditions: 50 μM; HFS 250 μA, 100 μs, 5 sec, 20° C.
thalamic slices = experiment: Extracellular adenosine by biosensor during HFS of thalamic slices; format: cell-based, mouse; conditions: 50 μM
Protocol: Thalamic slices (300 μm) from 14-18 day old mouse pups (FVB/NJ mice; Jackson Laboratory) were cut on a Vibratome (TPI) in an ice-cold cutting solution containing (in mM): 2.5 KCl, 1.25 NaH2PO4, 10 MgSO4, 5 CaCl2, 10 glucose, 26 NaHCO3, 230 sucrose and gassed with 5% CO2 and 95% O2. Slices were incubated for a minimum of 1 hr in a slice solution containing (in mM): 126 NaCl, 2.5 KCl, 1.25 NaH2PO4, 2 MgCl2, 2 CaCl2, 10 glucose, and 26 NaHCO3, pH 7.4, and gassed with 5% CO2 and 95% O2 at room temperature. The slices were transferred to a recording chamber (1.5 ml) perfused with aCSF at room temperature or 32° C. Whole-cell current clamp recordings were obtained using a 700B Multiclamp amplifier (Axon Instruments) (Jiang et al., “A Kainate Receptor Increases The Efficacy of Gabaergic Synapses,” Neuron 30:503-13 (2001); Tian et al., “An Astrocytic Basis of Epilepsy,” Nat Med 11:973-81 (2005), which are hereby incorporated by reference in their entirety). Concentric bipolar stimulating electrodes (FHC) were placed ˜100-400 μm ventromedial to the patched VL thalamic neuron. […] Adenosine measurements were detected using needle shaped electrode (Pt/Ir wire) biosensors (Sarissa Biomedical). […]

P2 receptors = conditions: cited from earlier work
Rat Parotid Ecto-ATPase = conditions: Dowd et al.; cited from earlier work
Ecto-ATPase [2] = conditions: Drakulich et al.; cited from earlier work

In the case of CCN(CC)c1ncnc2c1ncn2C1OC(COP(=O)(O)OP(=O)(O)C(Br)(Br)P(=O)(O)O)C(O)C1O [ARL67156, 6-N,N-diethyl-D-beta, gamma-dibromomethyleneATP], the IC50 (Ecto-ATPase [1]) is given as 4.6 µM, the “effect on HFS-induced depression of eEPSPs (FIG. 3G)” value (thalamic neurons) is given as “attenuated HFS-induced depression of eEPSPs” and the “HFS-induced increase in extracellular adenosine” value (thalamic slices) is given as “reduction in the HFS-induced adenosine increase”. For the same compound, the “HFS-induced increase in extracellular adenosine” value (thalamic slices; listed as ARL) was “reduced adenosine increases during HFS; also recorded: did not completely block the rise in adenosine”, the “effect on P2 receptors” value (P2 receptors) was “lack of or only has weak effect” and the IC50 (Rat Parotid Ecto-ATPase) was 120 µM. For the same compound, the Ki (Ecto-ATPase [2]) was 255 nM.
